Experiment [1] deals with Wnt activity (Sp5-Luc reporter, SW480 colon carcinoma cells). Nature of the experiment: Sp5-Luc Wnt reporter gene assay in SW480 colon carcinoma cells. Format: cell-based. The conditions noted are these: Homo sapiens; SW480 cells stably expressing Sp5-Luc reporter; 42 h incubation; BrightGlo luminescence normalized to DMSO. In outline: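 IC50 values come from variable-slope four-parameter fits of luciferase signal normalized to DMSO wells. Stable Sp5-Luc reporter SW480 colon carcinoma cells were exposed to compounds in a 3-fold dilution series (source plates from 10 mM stock) for forty-two hours at 37 °C.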
(In general: A reporter such as luciferase makes a cellular process visible.)

In experiment [2] the test system is primary human fibroblasts derived from IPF patients (LL29 cells). The experiment is described as follows: Inhibition of TGF-β1-induced fibrosis (αSMA staining) in primary human fibroblasts from IPF patients. Format: cell-based. As to conditions: Fibroblast, 96 h, TGF-β1 20 ng/mL, 4 days, 11-point dose-response 10 μM to 1.87 nM. An excerpt: The above synthesized compounds were screened using primary human fibroblasts (derived from IPF patients) treated with TGF-β1 to determine their ability to inhibit the fibrotic process.
Primary human fibroblasts derived from IPF patients (LL29 cells) [^1Xiaoqiu Liu, et. al., “Fibrotic Lung Fibroblasts Show Blunted Inhibition by cAMP Due to Deficient cAMP Response Element-Binding Protein Phosphorylation”, Journal of Pharmacology and Experimental Therapeutics (2005), 315(2), 678-687; ^2Watts, K. L., et. al., “RhoA signaling modulates cyclin D1 expression in human lung fibroblasts; implications for idiopathic pulmonary fibrosis”, Respiratory Research (2006), 7(1), 88] were obtained from American Type Culture Collection (ATCC) and expanded in F12 medium supplemented with 15% Fetal Bovine Serum and Penicillin/Streptomycin.
Each compound was dissolved in DMSO as a 10 mM stock and used to prepare compound source plates. Serial dilution (1:2, 11-point dose-response curves from 10 μM to 1.87 nM) and compound transfer was performed using the ECHO 550 (Labcyte, Sunnyvale, Calif.) into 384-well clear bottom assay plates (Greiner Bio-One) with appropriate DMSO backfill for a final DMSO concentration of 0.1%. LL29 cells were plated at 1,500 cells/well in 80 μl/well F12 medium supplemented with 1% Fetal Bovine Serum. One hour after addition of the cells, TGF-β1 (Peprotech; 20 ng/mL) was added to the plates to induce fibrosis (ref. 1 and 2 above). Wells treated with TGF-β1 and containing DMSO were used as controls. Cells were incubated at 37° C. and 5% CO2 for 4 days. Following incubation for 4 days, SYTOX green nucleic acid stain (Life Technologies [Thermo Fisher Scientific]) was added to the wells at a final concentration of 1 uM and incubated at room temperature for 30 min. Cells were then fixed using 4% formaldehyde (Electron Microscopy Sciences), washed 3 times with PBS followed by blocking and permeabilization using 3% Bovine Serum Albumin (BSA; Sigma) and 0.3% Triton X-100 (Sigma) in PBS. Cells were then stained with antibody specific to α-smooth muscle actin (αSMA; Abcam) (ref 1 and 2 above) in 3% Bovine Serum Albumin (BSA; Sigma) and 0.3% Triton X-100 (Sigma) in PBS, and incubated overnight at 4° C. Cells were then washed 3 times with PBS, followed by incubation with Alexa Flor-647 conjugated secondary antibody (Life Technologies [Thermo Fisher Scientific]) and DAPI at room temperature for 1 hour. Cells were then washed 3 times with PBS and plates were sealed for imaging. αSMA staining was imaged by excitation at 630 nm and emission at 665 nm and quantified using the Compartmental Analysis program on the CellInsight CX5 (Thermo Scientific). Dead or apoptotic cells were excluded from analysis based on positive SYTOX green staining. % of total cells positive for αSMA were counted in each well and normalized to the average of 11 wells treated with TGF-β1 on the same plate using Dotmatics' Studies Software. The normalized averages (fold change over untreated) of 3 replicate wells for each compound concentration were used to create dose-responses curves and EC50 values were calculated using non-linear regression curve fit in the Dotmatics' Studies Software. The EC50 values are reported.

pEC50, pIC50: −log10 of the molar value.

The term pIC50 denotes −log10 of the IC50, conventionally taken in molar units. Lower therefore signals a large IC50. For orientation: pEC50 means the EC50 on a negative log10 scale, so that one unit is a factor of ten. Read a low pEC50 as a large EC50.

Consider `CN(C)c1cncc(-c2cnc3[nH]nc(-c4nc5c(-c6cccs6)nccc5[nH]4)c3c2)c1` [Compound 293, N,N-Dimethyl-5-(3-(4-(thiophen-2-yl)-1H-imidazo[4,5-c]pyridin-2-yl)-1H-pyrazolo[3,4-b]pyridin-5-yl)pyridin-3-amine], for which the negative logarithm of the IC50 (pIC50) in experiment [1] was 7.43. In addition, the pEC50 in experiment [2] is 8.05.

For `CN(C)Cc1cncc(-c2cnc3[nH]nc(-c4nc5c(-c6cccs6)nccc5[nH]4)c3c2)c1` [Compound 299, N,N-Dimethyl-1-(5-(3-(4-(thiophen-2-yl)-1H-imidazo[4,5-c]pyridin-2-yl)-1H-pyrazolo[3,4-b]pyridin-5-yl)pyridin-3-yl)methanamine], in experiment [1], the pIC50 was 5.84. This molecule also had a negative logarithm of the EC50 (pEC50) in experiment [2] not above 5.00.

In experiment [1], `FC1(F)CCN(Cc2cncc(-c3cnc4[nH]nc(-c5nc6c(-c7cccs7)nccc6[nH]5)c4c3)c2)C1` [Compound 311, 5-(5-((3,3-Difluoropyrrolidin-1-yl)methyl)pyridin-3-yl)-3-(4-(thiophen-2-yl)-1H-imidazo[4,5-c]pyridin-2-yl)-1H-pyrazolo[3,4-b]pyridine] showed a pIC50 of 7.64. This molecule also showed a pEC50 in experiment [2] of 6.76.

Regarding `CC(C)CC(=O)Nc1cncc(-c2cnc3[nH]nc(-c4nc5c(-c6ccc(F)s6)nccc5[nH]4)c3c2)c1` [Compound 314, N-(5-(3-(4-(5-Fluorothiophen-2-yl)-1H-imidazo[4,5-c]pyridin-2-yl)-1H-pyrazolo[3,4-b]pyridin-5-yl)pyridin-3-yl)-3-methylbutanamide], the pIC50 in experiment [1] is 8.20. Moreover, the pEC50 in experiment [2] was 8.05.

Consider `CC(C)(C)C(=O)Nc1cncc(-c2cnc3[nH]nc(-c4nc5c(-c6ccc(F)s6)nccc5[nH]4)c3c2)c1` [Compound 320, N-(5-(3-(4-(5-Fluorothiophen-2-yl)-1H-imidazo[4,5-c]pyridin-2-yl)-1H-pyrazolo[3,4-b]pyridin-5-yl)pyridin-3-yl)pivalamide], for which the negative-log IC50 (pIC50) in experiment [1] was 8.03. The same molecule showed a pEC50 in experiment [2] of 8.05.

As for `Cc1ccc(-c2nccc3[nH]c(-c4n[nH]c5ncc(-c6cncc(NC(=O)C(C)C)c6)cc45)nc23)s1` [Compound 347, N-(5-(3-(4-(5-Methylthiophen-2-yl)-1H-imidazo[4,5-c]pyridin-2-yl)-1H-pyrazolo[3,4-b]pyridin-5-yl)pyridin-3-yl)isobutyramide], the pIC50 in experiment [1] was 7.68. In experiment [2], this molecule had a pEC50 of 6.20.

In turn, `Cc1ccc(-c2nccc3[nH]c(-c4n[nH]c5ncc(-c6cncc(CN7CCCCC7)c6)cc45)nc23)s1` [Compound 353, 3-(4-(5-Methylthiophen-2-yl)-1H-imidazo[4,5-c]pyridin-2-yl)-5-(5-(piperidin-1-ylmethyl)pyridin-3-yl)-1H-pyrazolo[3,4-b]pyridine] showed a negative-log IC50 (pIC50) in experiment [1] of 6.24. Further, the pEC50 in experiment [2] is 8.05.

`Cc1ccc(-c2nccc3[nH]c(-c4n[nH]c5ncc(-c6cncc(NC(=O)C7CCCC7)c6)cc45)nc23)s1` [Compound 359, N-(5-(3-(4-(5-Methylthiophen-2-yl)-1H-imidazo[4,5-c]pyridin-2-yl)-1H-pyrazolo[3,4-b]pyridin-5-yl)pyridin-3-yl)cyclopentanecarboxamide] gave a pIC50 in experiment [1] of 7.52. This molecule also gave a negative logarithm of the EC50 (pEC50) in experiment [2] of 5.31.

For `CC(=O)c1ccc(-c2nccc3[nH]c(-c4n[nH]c5ncc(-c6cncc(NC(=O)Cc7ccccc7)c6)cc45)nc23)s1` [Compound 374, N-(5-(3-(4-(5-Acetylthiophen-2-yl)-1H-imidazo[4,5-c]pyridin-2-yl)-1H-pyrazolo[3,4-b]pyridin-5-yl)pyridin-3-yl)-2-phenylacetamide], in experiment [1], the pIC50 is less than 5.00. Besides, the negative logarithm of the EC50 (pEC50) in experiment [2] was 6.37.

Consider `CC(=O)c1ccc(-c2nccc3[nH]c(-c4n[nH]c5ncc(-c6cncc(NC(=O)C7CCCCC7)c6)cc45)nc23)s1` [Compound 386, N-(5-(3-(4-(5-Acetylthiophen-2-yl)-1H-imidazo[4,5-c]pyridin-2-yl)-1H-pyrazolo[3,4-b]pyridin-5-yl)pyridin-3-yl)cyclohexanecarboxamide], for which the pIC50 in experiment [1] is 6.73. The negative-log EC50 (pEC50) in experiment [2] was 7.28.

In experiment [1], `CS(=O)(=O)NCc1cc(F)cc(-c2nccc3[nH]c(-c4n[nH]c5ncc(-c6cncc(NC(=O)c7ccccc7)c6)cc45)nc23)c1` [Compound 401, N-(5-(3-(4-(3-Fluoro-5-(methylsulfonamidomethyl)phenyl)-1H-imidazo[4,5-c]pyridin-2-yl)-1H-pyrazolo[3,4-b]pyridin-5-yl)pyridin-3-yl)benzamide] had a pIC50 of less than 5.00. This molecule also gave a negative-log EC50 (pEC50) in experiment [2] not above 5.00.

On to `CS(=O)(=O)NCc1cc(F)cc(-c2nccc3[nH]c(-c4n[nH]c5ncc(-c6cncnc6)cc45)nc23)c1` [Compound 416, N-(3-Fluoro-5-(2-(5-(pyrimidin-5-yl)-1H-pyrazolo[3,4-b]pyridin-3-yl)-1H-imidazo[4,5-c]pyridin-4-yl)benzyl)methanesulfonamide], for which the negative logarithm of the IC50 (pIC50) in experiment [1] was less than 5.00. The pEC50 in experiment [2] was not above 5.00.

Molecule `CCCCC(=O)Nc1cncc(-c2cnc3[nH]nc(-c4nc5c(-c6cc(F)cc(NCCN(C)C)c6)nccc5[nH]4)c3c2)c1` [Compound 434, N-(5-(3-(4-(3-((2-(Dimethylamino)ethyl)amino)-5-fluorophenyl)-1H-imidazo[4,5-c]pyridin-2-yl)-1H-pyrazolo[3,4-b]pyridin-5-yl)pyridin-3-yl)pentanamide] had a pIC50 in experiment [1] of 7.66. The pEC50 in experiment [2] is 7.89.

Molecule `CN(C)CCNc1cc(F)cc(-c2nccc3[nH]c(-c4n[nH]c5ncc(-c6cncc(CNCC7CCCC7)c6)cc45)nc23)c1` [Compound 440, N^1-(3-(2-(5-(5-(((Cyclopentylmethyl)amino)methyl)pyridin-3-yl)-1H-pyrazolo[3,4-b]pyridin-3-yl)-1H-imidazo[4,5-c]pyridin-4-yl)-5-fluorophenyl)-N^2,N^2-dimethylethane-1,2-diamine] gave a pIC50 in experiment [1] of 6.12. The same molecule gave a negative-log EC50 (pEC50) in experiment [2] of 6.07.

Regarding `Fc1cccc(-c2nccc3[nH]c(-c4n[nH]c5ncc(C6CCNCC6)cc45)nc23)c1` [Compound 885, 3-(4-(3-Fluorophenyl)-1H-imidazo[4,5-c]pyridin-2-yl)-5-(piperidin-4-yl)-1H-pyrazolo[3,4-b]pyridine], the negative logarithm of the IC50 (pIC50) in experiment [1] is 5.41. The molecule also had a negative logarithm of the EC50 (pEC50) in experiment [2] of 8.05.

In turn, `Fc1cccc(-c2nccc3[nH]c(-c4n[nH]c5ncc(-c6cn[nH]c6)cc45)nc23)c1` [Compound 887, 3-(4-(3-Fluorophenyl)-1H-imidazo[4,5-c]pyridin-2-yl)-5-(1H-pyrazol-4-yl)-1H-pyrazolo[3,4-b]pyridine] showed a negative-log IC50 (pIC50) in experiment [1] of 8.22. The molecule further gave a pEC50 in experiment [2] of 8.00.

With `NC1CN(c2cncc(-c3cnc4[nH]nc(-c5nc6c(-c7cccc(F)c7)nccc6[nH]5)c4c3)n2)C1` [Compound 890, 1-(6-(3-(4-(3-Fluorophenyl)-1H-imidazo[4,5-c]pyridin-2-yl)-1H-pyrazolo[3,4-b]pyridin-5-yl)pyrazin-2-yl)azetidin-3-amine], the negative logarithm of the IC50 (pIC50) in experiment [1] is 6.44. In experiment [2], this molecule showed a pEC50 of 6.69.

Turning to `Fc1cccc(-c2nccc3[nH]c(-c4n[nH]c5ncc(-c6cncc(OC7CCNCC7)c6)cc45)nc23)c1` [Compound 892, 3-(4-(3-Fluorophenyl)-1H-imidazo[4,5-c]pyridin-2-yl)-5-(5-(piperidin-4-yloxy)pyridin-3-yl)-1H-pyrazolo[3,4-b]pyridine], the pIC50 in experiment [1] is 6.50. The molecule also showed a negative logarithm of the EC50 (pEC50) in experiment [2] of 8.05.

Regarding `O=C(CC1CCNCC1)Nc1cncc(-c2cnc3[nH]nc(-c4nc5c(-c6cccc(F)c6)nccc5[nH]4)c3c2)c1` [Compound 893, N-(5-(3-(4-(3-Fluorophenyl)-1H-imidazo[4,5-c]pyridin-2-yl)-1H-pyrazolo[3,4-b]pyridin-5-yl)pyridin-3-yl)-2-(piperidin-4-yl)acetamide], in experiment [1], the pIC50 is 6.06. Moreover, in experiment [2], the negative logarithm of the EC50 (pEC50) is 6.51.
